Experimental data taken from PubChem BioAssay AID1918953 (Molecular Pharmacology Branch, DTP, NCI, 2023).
Values joined by “and” are separate entries in the source; they are usually repeats but may differ in a detail not shown here. Equal entries are not always repeated.

System: MDA-MB-231 complex spheroid viability
Test: Anticancer human tumor MDA-MB-231/ATCC cell line growth inhibition;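 note: drug exposure lasted 7 days starting on day 3 of spheroid growth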
Conditions: for viability, T/C: stronger effect = lower value
Text: Multicellular complex tumor spheroid response to LSD1 Inhibitor Iadademstat in combination with a variety of drugs and investigational agents in selected tumor cell lines
The current study was undertaken to assess response to LSD1 inhibitors in combination with standard-of-care drugs and investigational agents in solid tumor complex spheroid models as well as in the K-562 leukemia. Complex spheroids include a stromal component modeled by human endothelial cells (HUVEC) and fibroblasts modeled by human mesenchymal stem cells (MSCs). The concentration ranges selected for each drug and investigational agent were based upon clinically achievable concentrations if the clinical Cmax of the agent was known.
Compounds. The drugs and investigational agents used in this study are listed on Table 1. All of the agents used, including staurosporine (NSC755774) and gemcitabine (NSC613327), were obtained from the Developmental Therapeutics Program, NCI. FDA-approved anticancer drugs are available from the NCI at http://dtp.nci.nih.gov/branches/dscb/oncology_drugset_explanation.html. Drugs and investigational agents were >95% pure by proton nuclear magnetic resonance (NMR) and liquid chromatography/mass spectrometry (LC/MS). Stock solutions were prepared at 400x in DMSO, stored at -70 degrees C, and diluted in fresh medium prior to their use. The final concentration of DMSO in cell culture wells never exceeded 0.25% (v/v). The FDA-approved anticancer drug set is available from the Developmental Therapeutics Program at https://dtp.cancer.gov/organization/dscb/obtaining/available_plates.htm. All drugs and investigational agents were tested over a range starting from a high concentration at or near the clinical Cmax and decreasing in half-log increments. If the clinical Cmax for an agent had not been determined, the highest concentration tested was 10 microM.
Cell Lines. The patient-derived cancer cell (PDC) lines: 292921-168-R-J2-PDC, K24384-001-R-PDC, and 521955-158-R2-J5-PDC pancreatic carcinomas, 556581-035-R-J1 ovarian carcinoma, 324938-238-R-J1-PDC, 855422-203-R-J1-PDC and 883617-216-R-J1-PDC urothelial bladder carcinomas, 743489-274-T-PDC renal cell carcinoma, 138582-R-J1 Merkel cell tumor, K60290-347-R-J1 and K57222-313-R-J1-PDC glioblastomas, 653999-131-R-J2-PDC, LG0703-F948-PDC, and 349418-098-R-PDC non-small cell lung carcinomas, 885512-296-R-J2-PDC, 171881-019-R-J1-PDC breast carcinomas and 186277-243-T-J2-PDC and 233499-124-R-J2-PDC colon carcinomas were obtained from the NCI Patient-Derived Models Repository (PDMR, https://pdmr.cancer.gov). The established cell lines NCI/ADR-RES (RRID:CVCL_14520 and OVCAR-5 (RRID:CVCL_1628) ovarian carcinomas, 786-O (RRID:CVCL_1051) and A498 (RRID:CVCL_A498) renal cell carcinoma, NCI-H211 (ATCC, cat. CRL-5824; RRID:CVCL_1529), NCI-H196 (ATCC, cat. CRL-5823, RRID:CVCL_1509), SW 1271 (ATCC, cat. CRL-2177, RRID:CVCL_1716) and NCI-H1876 (ATCC, cat. CRL-5902, RRID:CVCL_1503) small cell lung carcinomas, MDA-MB-231 (RRID:CVCL_0062) and MDA-MB-468 (RRID:CVCL_0419)breast carcinomas (10-12). Pooled donor human umbilical vein endothelial cells (HUVEC, Lonza, cat. CC-2519) and human mesenchymal stem cells (hMSC, Lonza, cat. PT-2501) were purchased from Lonza (Walkersville, MD).
Cell Culture. All cells were maintained in an incubator at 37 degrees C and 5% CO2 with 95% humidity. The PDC lines were cultured according to standard operating procedures established by the NCI PDMR (https://pdmr.cancer.gov). Briefly all PDCs were thawed and cultured in Matrigel-coated flasks prepared with a working solution of 1X Ham's F-12 nutrient mix, without supplementation (Invitrogen, Waltham, MA, cat. 11765054), 100 U/mL penicillin-streptomycin (Invitrogen, cat. 15140122), and 2.5% Matrigel (Corning Inc., Corning, NY, cat. 354248) for the first three passages. […]

Which viability, T/C (compound 0.316 µM) does the source give for NC1CC1c1ccc(-c2cccc(O)c2)cc1 (stereo unspecified) here?
The viability, T/C was 68.1% [middle of 25 runs].

What about the viability, T/C (compound 1 µM) of the same compound?
The viability, T/C was 62.9% [middle of 25 runs].

What about the viability, T/C (compound 3.16 µM) of the same compound?
The viability, T/C was 64.5% [middle of 25 runs].

What about the viability, T/C (compound 10 µM) of the same compound?
Its viability, T/C is 47.7% [middle of 25 runs].

What does the source list for Cn1ncnc1C1c2n[nH]c(=O)c3cc(F)cc(c23)NC1c1ccc(F)cc1 (stereo unspecified) + NC1CC1c1ccc(-c2cccc(O)c2)cc1?
IC50 (curve of first compound, second compound 0.1 µM): > 100 nM; IC50 (curve of first compound, second compound 0.316 µM): 49 nM; IC50 (curve of first compound, second compound 1 µM): 48.1 nM; IC50 (curve of first compound, second compound 3.16 µM): 51.5 nM; IC50 (curve of first compound, second compound 10 µM): 0.479 nM; viability, T/C (second compound 0.1 µM, first compound 0.000316 µM): 86.3%; viability, T/C (second compound 0.1 µM, first compound 0.001 µM): 87.6%; viability, T/C (second compound 0.1 µM, first compound 0.00316 µM): 74.2%; viability, T/C (second compound 0.1 µM, first compound 0.01 µM): 77%; viability, T/C (second compound 0.1 µM, first compound 0.0316 µM): 62.4%; viability, T/C (second compound 0.1 µM, first compound 0.1 µM): 60.4%; viability, T/C (second compound 0.316 µM, first compound 0.000316 µM): 64.4%; viability, T/C (second compound 0.316 µM, first compound 0.001 µM): 61%; viability, T/C (second compound 0.316 µM, first compound 0.00316 µM): 60.6%; viability, T/C (second compound 0.316 µM, first compound 0.01 µM): 57.1%; viability, T/C (second compound 0.316 µM, first compound 0.0316 µM): 56.2%; viability, T/C (second compound 0.316 µM, first compound 0.1 µM): 42.7%; viability, T/C (second compound 1 µM, first compound 0.000316 µM): 62.4%; viability, T/C (second compound 1 µM, first compound 0.001 µM): 61.5%; viability, T/C (second compound 1 µM, first compound 0.00316 µM): 57.2%; viability, T/C (second compound 1 µM, first compound 0.01 µM): 51.2%; viability, T/C (second compound 1 µM, first compound 0.0316 µM): 53.5%; viability, T/C (second compound 1 µM, first compound 0.1 µM): 47.4%; viability, T/C (second compound 3.16 µM, first compound 0.000316 µM): 66.6%; viability, T/C (second compound 3.16 µM, first compound 0.001 µM): 69.4%; viability, T/C (second compound 3.16 µM, first compound 0.00316 µM): 67.4%; viability, T/C (second compound 3.16 µM, first compound 0.01 µM): 55.3%; viability, T/C (second compound 3.16 µM, first compound 0.0316 µM): 49.2%; viability, T/C (second compound 3.16 µM, first compound 0.1 µM): 48.7%; viability, T/C (second compound 10 µM, first compound 0.000316 µM): 51.9%; viability, T/C (second compound 10 µM, first compound 0.001 µM): 46.5%; viability, T/C (second compound 10 µM, first compound 0.00316 µM): 43%; viability, T/C (second compound 10 µM, first compound 0.01 µM): 42.5%; viability, T/C (second compound 10 µM, first compound 0.0316 µM): 33.1%; viability, T/C (second compound 10 µM, first compound 0.1 µM): 32.2%

With COc1ccc([C@@H](O)c2cc(-c3ncnc4cc(N5CCOCC5)ccc34)c(F)cc2Cl)nn1 as the compound, how does the viability, T/C (compound 0.0316 µM) read?
Its viability, T/C is 93.7% and 82%.

What about the viability, T/C (compound 0.1 µM) of the same compound?
The viability, T/C was 76.6% and 85.5%.

And the viability, T/C (compound 0.316 µM)?
The viability, T/C was 53.9% and 64.1%.

And the viability, T/C (compound 1 µM)?
The viability, T/C was 39.6% and 43.1%.

And the viability, T/C (compound 3.16 µM)?
The viability, T/C was 27.3% and 22.8%.

And the viability, T/C (compound 10 µM)?
Its viability, T/C is 23.2% and 13.2%.

And the IC50 (curve of compound)?
The IC50 was 449 nM and 700 nM.
